The results in this text go back to patent US20240208933A1, “CRYSTALLINE INHIBITORS OF CYSTEINE PROTEASES AND METHODS OF USE THEREOF” (priority 2021, published 2024).

Usually solubility stands for the dissolved amount per volume that the medium holds.

Data set [1] can be described thus: Approximate solubility determined by visual observation. It counts as physicochemical. To be noted: organic solvent or mixture. The method, then:
Approximate solubility was determined by visual observation and shown in Form C Table 8.
Approximate solubility was determined by visual observation and shown in Form F Table 12.

A short description of data set [2]: Dynamic vapor sorption (DVS) analysis. It counts as physicochemical.

Molecules are shown by their SMILES. Where two headings read alike, the source gives them in different places.

On to `N#C[C@H](C[C@@H]1CCCNC1=O)NC(=O)[C@H](CC1CC1)NC(=O)c1cc2cccc(Cl)c2[nH]1` [Form C, 7-chloro-N—((S)-1-(((S)-1-cyano-2-((S)-2-oxopiperidin-3-yl)ethyl)amino)-3-cyclopropyl-1-oxopropan-2-yl)-1H-indole-2-carboxamide, anhydrate], for which the solubility was less than 2 mg/mL in data set [1] (acetone, solvent Acetone, read-out: Solubility of Form C); greater than 2 mg/mL in data set [1] (ethanol, solvent Ethanol, read-out: Solubility of Form C); greater than 9 mg/mL in data set [1] (methanol, solvent Methanol, read-out: Solubility of Form C); greater than 23 mg/mL in data set [1] (methanol/dichloromethane (1/1), solvent Methanol/Dichloromethane (1/1), read-out: Solubility of Form C); greater than 28 mg/mL in data set [1] (methanol/dichloromethane (1/2), solvent Methanol/Dichloromethane (1/2), read-out: Solubility of Form C); greater than 16 mg/mL in data set [1] (methanol/dichloromethane (2/1), solvent Methanol/Dichloromethane (2/1), read-out: Solubility of Form C). For the same compound, the “DVS reversible total mass change” value in data set [2] (from about 90% to about 0% RH) is given as “about 0.7%”. Further, the DVS gain result in data set [2] (to about 90% relative humidity (RH) at 25° C.) is recorded as “about 0.5%”.
As for `N#C[C@H](C[C@@H]1CCCNC1=O)NC(=O)[C@H](CC1CC1)NC(=O)c1cc2cccc(Cl)c2[nH]1` [Form F, 7-chloro-N—((S)-1-(((S)-1-cyano-2-((S)-2-oxopiperidin-3-yl)ethyl)amino)-3-cyclopropyl-1-oxopropan-2-yl)-1H-indole-2-carboxamide, hydrate], the solubility in data set [1] (acetone, solvent Acetone, read-out: Solubility of Form F) was less than 2 mg/mL; in data set [1] (ethanol, solvent Ethanol, read-out: Solubility of Form F), greater than 7 mg/mL; in data set [1] (methanol, solvent Methanol, read-out: Solubility of Form F) it was greater than 11 mg/mL; in data set [1] (methanol/dichloromethane (1/1), solvent Methanol/Dichloromethane (1/1), read-out: Solubility of Form F), greater than 47 mg/mL; in data set [1] (methanol/dichloromethane (1/2), solvent Methanol/Dichloromethane (1/2), read-out: Solubility of Form F) it was greater than 58 mg/mL; in data set [1] (methanol/dichloromethane (2/1), solvent Methanol/Dichloromethane (2/1), read-out: Solubility of Form F), greater than 19 mg/mL. Further, the DVS reversable gain entry in data set [2] (from about 0 to about 90% relative humidity (RH), no hysteresis) is reported as “about 4 wt. %”.
